Reference: patent US4190670A, “Prostaglandin derivatives” (priority 1974, dated 1980)
Like-named read-outs stand apart in the source and are kept apart here.

Assays:
[1] = system: bronchioles (bronchial resistance); assay: Guinea-pig multiparameter test: bronchial resistance; format: in vivo; details: anaesthetized guinea-pig
Method: (§1) The selective activity of the hydroxy-prostaglandin derivatives of the present invention was established by a multiparameter guinea-pig test. In this test guinea-pigs weighing 600-900 g are anaesthetized with sodium pentobarbitone (45 mg/kg, i.p.). Supplementary doses of sodium pentobarbitone (3-6 mg i.v.) are administered when required (i.e. when spontaneous respiration appears). The jugular vein is cannulated for the administration of drugs. The guinea-pig is artificially respired with N2 O/O2 (7/3), using a Keuskamp respirator.
(§2) Then the following functions are measured:
b. Bronchial resistance and tracheal segment pressure.
A cannula is inserted into the trachea as close as possible to the thorax. The guinea-pig is artificially ventilated at 55 strokes/min. The pressure changes, assumed to be due to changes caused by the bronchioles, are measured by a pressure transducer attached to a side arm of the cannula. The trachea is occluded at its lower end with a blind-ended cannula, while a cannula is further introduced into the trachea as close as possible to the larynx. The system is completely filled with saline, and connected to a very sensitive pressure transducer. Changes in the pressure measured (cm H2 O) are assumed to reflect changes in the tone of the smooth muscle of the trachea. The trachea segment cannula is inserted with extreme caution so as to avoid disruption of the nerve or blood supply to the segment.

[2] = system: duodenum (intestinal motility); assay: Guinea-pig multiparameter test: intestinal contractions; format: in vivo; details: anaesthetized guinea-pig
Method: as §1, §2
c. Measurement of intestinal motility.
A balloon, containing distilled water and connected to a pressure transducer, is inserted in the duodenum of the guinea-pig. Care is taken on ligaturing the cannula to avoid stricture of the duodenum. The balloon is at a pressure of 10-20 mm Hg.

[3] = system: uterus (uterine motility); assay: Guinea-pig multiparameter test: uterine contractions; format: in vivo; details: anaesthetized guinea-pig
Method: as §1, §2
d. Measurement of uterine motility.
A polyethylene cannula is inserted into the uterus via the vagina to a depth of 2.5 cm. This is then tied off with a ligature around the cervix. The cannula is connected to a pressure transducer, the whole system being filled with liquid paraffin at a pressure of 10-20 mm Hg.

[4] = system: Histamine-induced broncho-constriction; assay: Antagonism of histamine-induced broncho-constriction (guinea-pig); format: in vivo; details: Cavia porcellus, iv, read-out: % INHIBITION (± S.D.) of histamine-induced broncho-constriction
Method: The activity of the 18.xi.-, 19.xi.- and 20.xi.-hydroxy-prostaglandin derivatives on the respiratory tract misculature was further confirmed by determination of their ability to antagonize histamine-induced bronchoconstriction. This test is a modification of the guinea-pig multiparameter test, cannulations being carried out only for recording blood pressure, tracheal segment pressure and bronchial resistance.
Histamine was injected i.v. in a dose of 4 μg (as base) at regular intervals throughout the experiment. If extra doses of sodium pentobarbitone had to be administered during the course of the experiment to suppress voluntary respiration, the interval to the next dose of histamine was lengthened.
Test compounds were injected i.v. one minute before histamine in volumes less than 0.5 ml. The substances were washed in with 0.3 ml sterile saline. The lungs were artificially over-ventilated one minute prior to injection of the test compounds.
The ability of the compounds to counteract histamine-induced bronchoconstriction and the increase in tracheal segment pressure was determined using two dose levels--a low one and a high one.

rabbit eye = assay: Irritation following topical application in the rabbit eye (Draize scoring method); format: in vivo
Source text: This effect can be studied using the Draize scoring method for determining irritation following topical application in the rabbit eye.

[5] = cited from earlier work

Compound `CCC(O)CC[C@H](O)/C=C/[C@H]1CCC(=O)[C@@H]1CCCCCCC(=O)O` (relative stereo) [9-keto-15α,18.xi.-dihydroxy-prost-13(t)-enoic acid] has a BRONCHIAL resistance ([1]; dose 100 μg) of 0, an INTESTINAL contractions ([2]; dose 100 μg) of 0 and a UTERINE contractions ([3]; dose 100 μg) of 0. For the same compound, the inhibition in vivo at 0.001 mg [4] was 25.9% and the inhibition in vivo at 0.1 mg [4] was about 80%.

For `CC(O)CCC[C@H](O)/C=C/[C@H]1CCC(=O)[C@@H]1CCCCCCC(=O)O` (relative stereo) [9-keto-15α,19.xi.-dihydroxy-prost-13(t)-enoic acid], the BRONCHIAL resistance ([1]; dose 100 μg) was 0, the INTESTINAL contractions ([2]; dose 100 μg) was 0 and the UTERINE contractions ([3]; dose 100 μg) was 0. It also gave an inhibition in vivo at 0.001 mg [4] of 23.9% and an inhibition in vivo at 0.1 mg [4] of 88.1%.

`CC(O)CCC[C@@H](O)/C=C/[C@H]1CCC(=O)[C@@H]1CCCCCCC(=O)O` (relative stereo) [9-keto-15β,19.xi.-dihydroxy-prost-13(t)-enoic acid] showed an inhibition in vivo at 0.5 mg [4] of about 85%.

`CC(O)CCC[C@@H](O)/C=C/[C@H]1CC[C@H](O)[C@@H]1CCCCCCC(=O)O` (relative stereo) [9α,15β,19.xi.-trihydroxy-prost-13-(t)-enoic acid] showed an inhibition in vivo at 0.5 mg [4] of about 60%.

With `CCC(O)CC[C@H](O)/C=C/[C@H]1CC[C@@H](O)[C@@H]1CCCCCCC(=O)O` (relative stereo) [9β,15α,18.xi.-trihydroxy-prost-13(t)-enoic acid] the BRONCHIAL resistance ([1]; dose 500 μg) was 0, the INTESTINAL contractions ([2]; dose 500 μg) was 0 and the UTERINE contractions ([3]; dose 500 μg) was 0. For the same compound, the inhibition in vivo at 0.1 mg [4] was 28.1%.

`CC(O)CCC[C@H](O)/C=C/[C@H]1CC[C@@H](O)[C@@H]1CCCCCCC(=O)O` (relative stereo) [9β,15α,19.xi.-trihydroxy-prost-13(t)-enoic acid] showed a BRONCHIAL resistance ([1]; dose 500 μg) of 0, an INTESTINAL contractions ([2]; dose 500 μg) of 0 and a UTERINE contractions ([3]; dose 500 μg) of 0. The inhibition in vivo at 0.1 mg [4] was 62.5%.

Compound `O=C(O)CCCCCC[C@H]1[C@H](O)CC[C@@H]1/C=C/[C@@H](O)CCCCCO` (relative stereo) [9β,15α,20-trihydroxy-prost-13(t)-enoic acid] has a BRONCHIAL resistance ([1]; dose 500 μg) of 0, an INTESTINAL contractions ([2]; dose 500 μg) of 0 and a UTERINE contractions ([3]; dose 500 μg) of 0. For the same compound, the inhibition in vivo at 0.1 mg [4] was 52.9%.

For `CCC(O)CC[C@H](O)/C=C/[C@H]1[C@H](O)CC(=O)[C@@H]1CCCCCCC(=O)O` (stereo partly drawn) [9-keto-11α,15α,18.xi.-trihydroxy-prost-13(t)-enoic acid], the inhibition in vivo at 0.001 mg [4] was about 70%.

Compound `CCC(O)CC[C@H](O)/C=C/[C@H]1[C@H](O)CC(=O)[C@@H]1C/C=C\CCCC(=O)O` (stereo partly drawn) [9-keto-11α,15α,18.xi.-trihydroxy-prosta-5(c),13(t)-dienoic acid] has an inhibition in vivo at 0.001 mg [4] of about 35%.

Work on `CC(O)CCC[C@H](O)/C=C/[C@H]1[C@H](O)CC(=O)[C@@H]1CCCCCCC(=O)O` (stereo partly drawn) [9-keto-11α,15α,19.xi.-trihydroxy-prost-13(t)-enoic acid] yielded an inhibition in vivo at 0.001 mg [4] of about 60%.

For `CC(O)CCC[C@H](O)/C=C/[C@H]1[C@H](O)CC(=O)[C@@H]1C/C=C\CCCC(=O)O` (stereo partly drawn) [9-keto-11α,15α,19.xi.-trihydroxy-prosta-5(c),13(t)-dienoic acid], the inhibition in vivo at 0.001 mg [4] was about 70%.

Compound `CCC(O)CC[C@H](O)/C=C/[C@H]1CCC(=O)[C@@H]1C/C=C\CCCC(=O)O` (stereo partly drawn) [9-keto-15α,18.xi.-dihydroxy-prosta-5(c),13(t)-dienoic acid] has an inhibition in vivo at 0.001 mg [4] of 45%.

With `CC(O)CCC[C@H](O)/C=C/[C@H]1CCC(=O)[C@@H]1C/C=C\CCCC(=O)O` (stereo partly drawn) [9-keto-15α,19.xi.-dihydroxy-prosta-5(c),13(t)-dienoic acid] the inhibition in vivo at 0.001 mg [4] was 50.3%.

With `O=C(O)CCC/C=C\C[C@H]1C(=O)CC[C@@H]1/C=C/[C@@H](O)CCCCCO` [9-keto-15α,20-dihydroxy-prosta-5(c),13(t)-dienoic acid] the inhibition in vivo at 0.001 mg [4] was 60.7%.

`CCCCC[C@H](O)/C=C/[C@H]1[C@H](O)CC(=O)[C@@H]1CCCCCCC(=O)O` [PGE1, 9-keto-11α,15α-dihydroxy-prost-13(t)-enoic acid, reference compound] showed a BRONCHIAL resistance ([1]; dose 5 μg) of 0, a UTERINE contractions ([3]; dose 5 μg) of 0 and an inhibition in vivo at 0.0001 mg ([4]; dose 0.1 μg i.v., one minute before histamine 4 μg i.v.) of 27.6%. It also gave an inhibition in vivo at 0.001 mg ([4]; dose 1 μg i.v., one minute before histamine 4 μg i.v.) of 53.2%, an inhibition in vivo at 0.005 mg ([4]; dose 5.0 μg i.v., one minute before histamine 4 μg i.v.) of about 88% and a threshold irritant dose (rabbit eye) of 1 μg/eye.

For `CCCCC[C@H](O)/C=C/[C@H]1[C@H](O)CC(=O)[C@@H]1C/C=C\CCCC(=O)O` [PGE2, 9-keto-11α,15α-dihydroxy-prosta-5(c),13(t)-dienoic acid], the “persistant coughing on aerosol use” value [5] is given as “persistant coughing”.
